pKd: −log10 of the molar value.
Test system: TAMRA-PEPPKA(p)
Assay: Zn(II)-mediated QD-FRET between QD525 and TAMRA-labelled phosphopeptide
Assay type: binding
Conditions: QD 2 nM
Experimental: A synthetic peptide substrate labeled with 5(6)-carboxytetramethylrhodamine at the N-terminus (TAMRA-LRRASLG; TAMRA-PEPPKA) was compared with its phosphorylated form (TAMRA-LRRApSLG; TAMRA-PEPPKA(p)) (FIG. 12B). The FRET ratio was determined by the acceptor (FA) emission area (integrated from 550 to 650 nm) relative to the donor (FD) emission area (integrated from 450 to 550 nm). The concentrations of QD, TAMRA-PEPPKA(p) (or TAMRA-PEPPKA), and ZnCl2 were 2 nM, 80 nM and 100 μM, respectively. The QD-FRET spectra were obtained at an excitation wavelength of 380 nm.
The change in FRET between QD and TAMRA-PEPPKA(p) according to a function of Zn^2+ concentration was calculated. Furthermore, the relative FRET percentage was calculated by dividing the experimental FRET ratio by the maximal FRET ratio (0.74). The concentrations of QD and TAMRA-PEPPKA(p) were 2 nM and 80 nM, respectively. Excitation/emission wavelengths of QD-FRET (FIG. 12C (i)), QD (FIG. 12C (ii)), and TAMRA-PEPPKA(p) (FIG. 12C (iii)) were obtained at 380/580, 380/525, 530/580 nm, respectively.

- pKd (free Zn(II) ions, TAMRA-PEPPKA(p) 80 nM (1:40 molar ratio), read-out: binding affinity Kd for TAMRA-PEPPKA(p), based on the FRET efficiency): 5.06
SMILES: [Cl-].[Cl-].[Zn+2] [Zn(II), ZnCl2]
- FRET ratio (FA/FD) (TAMRA-PEPPKA(p) 80 nM, ZnCl2 100 μM, excitation 380 nm): 0.65
